Measurements published in PubChem BioAssay (NCI).
Where “and” joins values, the source holds several entries; their conditions need not be identical. Identical values can stand only once.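 Five compound concentrations were applied to cells in 96-well plates for 48 hours; endpoints were derived by simple linear interpolation of the resulting dose-response curve. At the GI50, growth is halved. At the TGI there is no net growth.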

Key:
Assay in all cases: NCI tumour cell line growth inhibition, 48 h
NCI/ADR-RES ovarian = system: NCI/ADR-RES ovarian
ACHN renal = system: ACHN renal
SK-MEL-28 melanoma = system: SK-MEL-28 melanoma
DU-145 prostate = system: DU-145 prostate
HCC-2998 colon = system: HCC-2998 colon
NCI-H226 lung = system: NCI-H226 lung
OVCAR-5 ovarian = system: OVCAR-5 ovarian
U251 CNS = system: U251 CNS
SK-OV-3 ovarian = system: SK-OV-3 ovarian
SNB-19 CNS = system: SNB-19 CNS

SMILES	TGI (NCI/ADR-RES ovarian)	TGI (ACHN renal) [µM]	TGI (SK-MEL-28 melanoma) [µM]	TGI (DU-145 prostate) [µM]	TGI (HCC-2998 colon)	TGI (NCI-H226 lung) [µM]	TGI (OVCAR-5 ovarian)	TGI (U251 CNS) [µM]	TGI (SK-OV-3 ovarian)	TGI (SNB-19 CNS) [µM]	GI50 (NCI/ADR-RES ovarian) [µM]	GI50 (SK-MEL-28 melanoma) [µM]	GI50 (OVCAR-5 ovarian) [µM]	GI50 (U251 CNS) [µM]	GI50 (SK-OV-3 ovarian) [µM]	GI50 (SNB-19 CNS) [µM]
COP(=O)(OC)C(N)Cc1c[nH]c2ccccc12 (stereo not given)	> 100 µM	> 100	> 100	> 100	> 100 µM	> 100	> 100 µM	> 100	> 100 µM	> 100	–	–	–	–	–	–
O=C(NC(=S)Nc1ccc(Br)cc1)c1ccc2c(c1)Sc1ccccc1O2	> 100 µM	> 100	> 100	> 100	–	> 100	> 100 µM	> 100	> 100 µM	> 100	–	–	–	–	–	–
COc1ccc2c(c1OC)C(=O)C2	–	> 100	> 100	–	–	> 100	–	> 100	> 100 µM	> 100	–	–	–	–	–	–
O=C1OC(C(O)CO)C(C(O)CO)OC1=O (stereo not given)	> 10 µM	> 10	> 10	–	> 10 µM	> 10	> 10 µM	> 10	–	> 10	–	–	–	–	–	–
CS(=O)(=O)OCCN(CCOS(C)(=O)=O)c1ccc(C=Nc2ccc(-c3csc(Cc4ccccc4)n3)cc2)c(Cl)c1	> 70 µM	> 84	> 100	> 86.5	35.1 µM	1.79	99.1 µM	> 83.3	> 77.7 µM	> 89.6	–	–	–	–	–	–
O=C(N/N=C\c1ccc(Cl)cc1)Nc1ccc2ccccc2c1	> 100 µM	> 100	> 100	> 100	> 100 µM	> 100	> 100 µM	63.5	> 100 µM	> 100	–	–	–	–	–	–
O=C1C=C(NCCc2ccc(O)c([N+](=O)[O-])c2)C(=O)c2[nH]cnc21	> 100 µM	> 100	30.4	–	> 100 µM	–	> 100 µM	> 100	–	> 100	–	–	–	–	–	–
CC(O)C(CO)NC(=O)C1CSSCC(NC(=O)C(N)Cc2ccccc2)C(=O)NC(Cc2ccccc2)C(=O)NC(Cc2c[nH]c3ccccc23)C(=O)NC(CCCCN)C(=O)NC(C(C)O)C(=O)N1 (stereo not given)	> 100 µM	> 100	> 100	> 100	–	> 100	> 100 µM	> 100	–	> 100	–	–	–	–	–	–
O=c1c(NCc2ccccc2)c(C2(c3ccccc3F)SCCCS2)c1=O	> 100 µM	> 100	> 100	> 100	–	> 100	> 100 µM	> 100	> 100 µM	> 100	–	–	–	–	–	–
CC(C)CC1c2[nH]c3ccccc3c2C[C@H]2C(=O)NC(Cc3c[nH]c4ccccc34)C(=O)N12 (stereo not given in full)	56.4 µM	60	40.5	> 100	–	50	48 µM	28.4	49 µM	43.6	–	–	–	–	–	–
Cc1cccc2c(=O)c3cccc([C@H](C)C(=O)O)c3oc12	> 100 µM	> 100	> 100	> 100	> 100 µM	> 100	–	> 100	> 100 µM	> 100	–	–	–	–	–	–
O=C1/C(=C/c2cccc([N+](=O)[O-])c2)N=C(c2ccccc2)N1c1nc2ccc(Sc3ccccc3)cc2[nH]1	> 100 µM	> 100	> 100	–	> 100 µM	> 100	> 100 µM	> 100	> 100 µM	> 100	–	–	–	–	–	–
COc1ccc(C2CC(c3sc(Nc4ccc(C)cc4)nc3C)=NN2)cc1 (stereo not given)	32.4 µM	–	33.6	–	30.1 µM	33.5	39.2 µM	28.4	44.1 µM	33.8	–	–	–	–	–	–
COc1ccc(-c2cc(-c3ccc(C)cc3)n(C3OC(COC(C)=O)C(OC(C)=O)C(OC(C)=O)C3OC(C)=O)c(=S)c2C#N)cc1 (stereo not given)	> 100 µM	> 100	> 100	> 100	> 100 µM	> 100	> 100 µM	> 100	> 100 µM	> 100	–	–	–	–	–	–
COc1ccc2[nH]c3ccc4cc[n+](CCN5CCC(C6CCN(CC[n+]7ccc8ccc9[nH]c%10ccc(OC)cc%10c9c8c7)CC6)CC5)cc4c3c2c1	50 µM and > 46.4 µM	50	> 50	50	14.2 µM and > 100 µM	50	50 µM and > 91.1 µM	> 52.3	45.8 µM and 20.6 µM	> 70.9	35.2	> 50	39.2	> 50	33.2	> 50
O=C(Nc1ccccc1C(=O)NCc1ccccc1)/C(=C/c1ccccc1O)NC(=O)c1ccccc1	> 100 µM	> 100	> 100	> 100	> 100 µM	> 100	> 100 µM	> 100	> 100 µM	> 100	–	–	–	–	–	–
N=c1oc2ccc3ccccc3c2cc1-c1nc2ccccc2c(=O)[nH]1	> 100 µM	34	> 100	> 100	> 100 µM	> 100	> 100 µM	> 100	> 100 µM	> 100	–	–	–	–	–	–
CCCCn1c(=O)[nH]c2c(N)ncnc21	> 100 µM	> 100	> 100	> 100	> 100 µM	> 100	> 100 µM	> 100	> 100 µM	> 100	–	–	–	–	–	–
CCCC(=O)OCC1OC(n2cc(F)c(=O)[nH]c2=O)CC1OC(=O)CCC (stereo not given)	> 10 µM	> 10	> 10	> 2.62	> 10 µM	> 10	> 10 µM	> 10	> 10 µM	> 10	–	–	–	–	–	–
COc1cc2ncnc(NS(=O)(=O)c3cc4ccccc4s3)c2cc1OC	> 100 µM	> 100	–	> 100	> 100 µM	> 100	> 100 µM	> 100	> 100 µM	> 100	–	–	–	–	–	–
O=C(COc1cc(=O)oc2ccccc12)c1ccccc1	–	36.4	> 100	> 100	> 100 µM	49	> 100 µM	34.1	–	48.9	–	–	–	–	–	–
